Reference: patent US9809634B2, “Composition comprising branched multipeptide vaccine and vaccine comprising the same” (INDUSTRY FOUNDATION OF CHONNAM NATIONAL UNIVERSITY, priority 2015, dated 2017)

System: T2 cell line expressing HLA-A2
Assay: Binding capacity to T-lymphocyte of each subsequence residue (T2 cells, HLA-A2-FITC staining, flow cytometry)
Assay type: cell-based, human
Conditions: T2 cells cultured overnight with peptide and beta2-microglobulin; FIG. 3; compared with the other subsequence residues of the same tumor antigen
Experimental: The binding capacity to T-lymphocyte, of each of the subsequence residues shown in Table 1 above, was measured (FIG. 3).
Measurement of binding capacity between T-lymphocyte and each of the subsequence residues
T2 cell line (Korea Cell Line Bank) is […] expressing HLA-A2. The peptide and beta2-microglobulin on T2 cells were cultured overnight, and the T2 cells were stained with antihuman HLA-A2-FITCmAb, and analyzed by a FACS Caliber flow cytometer and WinMDI software.
The binding capacity of subsequence residue was calculated from mean fluorescence with the peptide and mean fluorescence without the peptide according to the following Equation: […]

| Sequence | binding capacity to T-lymphocyte |
| --- | --- |
| LLLFGLLGV (Peptide CD99-9) [SEQ ID NO: 10] | most excellent |
| LMLGEFLKL [SEQ ID NO: 9] | most excellent |
